Experimental findings from ChEMBL document CHEMBL1201862, “PubChem BioAssay data set” (2004) are described below.

Assay [1] has as its target T1, Delta-type opioid receptor (Homo sapiens, UniProt P41143). The experiment in a line: HTS Image-Based Screen for Antagonists of the DOR Receptor. [Related pubchem assays (depositor defined):AID1777, AID1785, AID1786, AID2133]. The format is functional.
In assay [2] the target is Mu-type opioid receptor (Homo sapiens, UniProt P35372). The experiment in a line: HTS Image-Based Screen for Agonists of the MOR Receptor. [Related pubchem assays (depositor defined):AID1777, AID1785, AID1786, AID2133]. The format is functional.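 Note: imaging of beta-arrestin GFP recruitment into spots after receptor activation.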
Assay [3] deals with E3 ubiquitin-protein ligase Mdm2 (Homo sapiens, UniProt Q00987). In words: enhancers of MDM2-luciferase reporter signal, concentration-effect titration, project on inhibitors of MDM2 ubiquitin ligase, cellular assay, luminescent readout, 384-well plate format (AID 1394).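 Note: MDM2 E3 inhibitors raise luminescence so EC50 is for signal enhancement.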 The format is functional. For orientation: Reporter assays use an easily measured gene product as a stand-in for the process of interest.

In assay [4] the test system is Streptococcus sp. 'group A'. In words: growth inhibition of control SK(-) GAS strain, dose response, counter-screen for streptokinase expression inhibitor project, luminescence, kanamycin, BacTiterGlo, confirmation (AID 1900). It is filed as functional, organism-based. Background: A counterscreen serves to expose hits that act by an unwanted route or on another target.

For assay [5], the target named is T1, Delta-type opioid receptor. The experiment in a line: HTS Image-Based Screen for Agonists of the DOR Receptor. [Related pubchem assays (depositor defined):AID1777, AID1786, AID2133]. It is filed as functional.
Assay [6] has as its target T2, Beta-galactosidase (Escherichia coli, UniProt Q8VNN2). In words: PubChem AID 485352. It is filed as functional.
Assay [7] can be described thus: inhibitors of intracellular T. cruzi replication, confirmation, NIH3T3 host cells, beta-gal luminescence (AID 2044).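 Note: intracellular parasites grown in NIH/3T3 mouse fibroblasts as host cells; luminescent beta-galactosidase reporter signal from transgenic T. cruzi replicating inside host cells; inhibitors lower the luminescence signal.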 It is filed as functional, cell-based.
Assay [8] deals with T3, Type-1 angiotensin II receptor (Homo sapiens, UniProt P30556).
T3 sequence (P30556 whole entry): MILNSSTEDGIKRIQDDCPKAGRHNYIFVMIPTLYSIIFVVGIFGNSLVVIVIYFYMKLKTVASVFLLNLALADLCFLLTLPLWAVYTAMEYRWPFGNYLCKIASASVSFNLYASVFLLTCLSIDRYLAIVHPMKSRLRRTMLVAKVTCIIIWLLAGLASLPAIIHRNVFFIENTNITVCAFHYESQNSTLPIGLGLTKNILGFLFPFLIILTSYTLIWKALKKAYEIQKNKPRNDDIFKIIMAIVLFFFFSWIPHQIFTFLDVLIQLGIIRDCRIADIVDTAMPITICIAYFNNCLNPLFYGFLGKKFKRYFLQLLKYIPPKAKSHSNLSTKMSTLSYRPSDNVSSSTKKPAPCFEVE
In words: AT1 receptor antagonists, dose response, selectivity assay for APJ receptor antagonist project, cell-based, uHTS hits (AID 463214).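 Note: antagonist potency against angiotensin II stimulated AT1 response.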 The format is functional.

Assay [9] addresses T4, Kappa-type opioid receptor (Homo sapiens, UniProt P41145). It is filed as functional.
Assay [10] in a line: cytotoxicity toward NIH3T3 fibroblasts, dose response, counter-screen, cell-based, ATP luminescence, mouse fibroblasts (AID 2010).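 Note: cells exposed to compound for about 90 hours before reading.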 The format is functional.
Assay [11] deals with T2, Beta-galactosidase. It is filed as functional.
For assay [12], the target named is T4, Kappa-type opioid receptor. The format is functional. This is another data set of the same source.
For assay [13], the system named is Streptococcus. The experiment in a line: Group A Streptococcus viability loss, dose response, counter-screen for streptokinase expression inhibitor project, luminescence, BacTiterGlo (AID 1915).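 Note: potency for reduction of bacterial viability or growth.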 The format is functional, organism-based.
Assay [14] has as its target T5, Ubiquitin-conjugating enzyme E2 N (Homo sapiens, UniProt P61088).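 Note: Dose-response confirmation in a TR-FRET assay detecting UBC13-driven polyubiquitin chain formation, inhibition measured.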
T5 sequence (P61088 whole entry): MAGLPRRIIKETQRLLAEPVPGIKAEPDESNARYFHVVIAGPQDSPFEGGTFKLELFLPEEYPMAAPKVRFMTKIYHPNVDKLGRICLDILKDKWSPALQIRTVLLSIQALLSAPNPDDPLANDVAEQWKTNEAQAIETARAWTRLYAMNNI
The format is functional.

For assay [15], the target named is Nonstructural protein 1 (Influenza A virus, UniProt Q194T2). It is filed as functional, Influenza A virus (A/California/07/2009(H1N1)).
For assay [16], the target named is T6, Heat shock factor protein 1 (Mus musculus, UniProt P38532).
T6 sequence (P38532 whole entry): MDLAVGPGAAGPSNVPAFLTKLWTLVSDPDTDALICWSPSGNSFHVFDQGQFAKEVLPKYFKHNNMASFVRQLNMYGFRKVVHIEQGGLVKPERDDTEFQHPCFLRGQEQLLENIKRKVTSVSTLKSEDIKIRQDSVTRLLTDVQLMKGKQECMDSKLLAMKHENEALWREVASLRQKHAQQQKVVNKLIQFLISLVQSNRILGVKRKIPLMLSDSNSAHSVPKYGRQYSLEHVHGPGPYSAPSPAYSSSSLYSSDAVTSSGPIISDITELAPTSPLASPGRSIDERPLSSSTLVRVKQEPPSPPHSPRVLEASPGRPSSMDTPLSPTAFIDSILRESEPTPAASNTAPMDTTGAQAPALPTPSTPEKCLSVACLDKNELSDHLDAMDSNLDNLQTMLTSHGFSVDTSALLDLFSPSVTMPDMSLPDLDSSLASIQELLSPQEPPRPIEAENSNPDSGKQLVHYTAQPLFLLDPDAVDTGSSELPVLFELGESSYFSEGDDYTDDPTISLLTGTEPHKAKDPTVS
In words: HSF1 potentiators in luciferase reporter cells, confirmation, cell-based, NIH3T3, luminescence, dose retest (AID 435004).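 Note: stress induced by proteasome inhibitor MG132 added 30 min after compound; luciferase reporter driven by HSF1 response element in NIH3T3 cells; actives raise luminescence as potentiators of the MG132 stress response.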 It is filed as functional.

The nature of assay [17]: AlphaScreen signal interference compounds, dose response, artefact control for ARNT-TACC3 interaction inhibitor project, biochemical, luminescence, cherry-pick (AID 651705).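 Note: AlphaScreen bead proximity signal that flags compounds interfering with the detection technology; potency reflects signal decrease which marks the compound as an assay artifact.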 It is filed as functional. On the technique in general: In Alpha technology, singlet oxygen from a donor bead excites a nearby acceptor bead.
Assay [18] concerns the target T7, G-protein coupled receptor 55 (Homo sapiens, UniProt Q9Y2T6). In words: GPR55 antagonists blocking LPI-driven arrestin recruitment, primary screen, imaging, U2OS, beta-arrestin-GFP, LPI agonist (AID 2013).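 Note: antagonist potency measured as reduced agonist-driven arrestin aggregation.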 The format is functional.
The target of assay [19] is T8, Cannabinoid receptor 1 (Homo sapiens, UniProt P21554). In words: SAR analysis of antagonists of the Cannabinoid Receptor 1 using an Image-Based Assay - Set 2. [Related pubchem assays (depositor defined):AID2013, AID2026]. The format is functional.
Assay [20] addresses T9, G-protein coupled receptor 35 (Homo sapiens, UniProt Q9HC97). In words: SAR analysis of Agonists of the GPR35 Receptor using an Image-Based Assay - Set 2. [Related pubchem assays (depositor defined):AID2013, AID2026]. The format is functional.
Assay [21] concerns the target T10, Cannabinoid receptor 2 (Homo sapiens, UniProt P34972). In words: SAR analysis of antagonists of the Cannabinoid Receptor 2 using an Image-Based Assay. [Related pubchem assays (depositor defined):AID2013, AID2026]. It is filed as functional.
The target in assay [22] is T8, Cannabinoid receptor 1. In words: SAR analysis of agonists of the Cannabinoid Receptor 1 using an Image-Based Assay - Set 2. [Related pubchem assays (depositor defined):AID2013, AID2026]. The format is functional.
In assay [23] the target is T9, G-protein coupled receptor 35. In words: SAR analysis of Antagonists of the GPR35 Receptor using an Image-Based Assay - Set 3. [Related pubchem assays (depositor defined):AID2013, AID2026]. It is filed as functional.
In assay [24] the target is T7, G-protein coupled receptor 55. The experiment in a line: GPR55 antagonist potency of analogs, SAR follow-up, imaging, U2OS, beta-arrestin-GFP, LPI agonist, set 2 (AID 2820). The format is functional.
The target in assay [25] is T10, Cannabinoid receptor 2. The experiment in a line: SAR analysis of agonists of the Cannabinoid Receptor 2 using an Image-Based Assay. [Related pubchem assays (depositor defined):AID2013, AID2026]. It is filed as functional.

SMILES strings stand for the structures. Calls of active or inactive are those of the source. A value given as a limit tells only on which side of the number the result lay.

T8 sequence (P21554 whole entry): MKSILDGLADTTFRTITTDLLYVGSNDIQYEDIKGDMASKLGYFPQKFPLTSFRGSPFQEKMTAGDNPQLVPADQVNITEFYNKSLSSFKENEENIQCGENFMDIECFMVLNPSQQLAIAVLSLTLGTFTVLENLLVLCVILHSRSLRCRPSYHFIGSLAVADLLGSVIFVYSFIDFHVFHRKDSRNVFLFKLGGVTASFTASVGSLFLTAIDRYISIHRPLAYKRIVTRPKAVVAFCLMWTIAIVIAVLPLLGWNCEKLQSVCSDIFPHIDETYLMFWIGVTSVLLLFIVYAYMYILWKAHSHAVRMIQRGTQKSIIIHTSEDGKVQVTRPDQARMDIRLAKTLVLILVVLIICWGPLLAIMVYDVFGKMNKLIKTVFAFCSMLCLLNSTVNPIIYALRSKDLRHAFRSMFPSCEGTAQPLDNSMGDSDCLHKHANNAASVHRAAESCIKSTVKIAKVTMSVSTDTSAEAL
T2 sequence (Q8VNN2 whole entry): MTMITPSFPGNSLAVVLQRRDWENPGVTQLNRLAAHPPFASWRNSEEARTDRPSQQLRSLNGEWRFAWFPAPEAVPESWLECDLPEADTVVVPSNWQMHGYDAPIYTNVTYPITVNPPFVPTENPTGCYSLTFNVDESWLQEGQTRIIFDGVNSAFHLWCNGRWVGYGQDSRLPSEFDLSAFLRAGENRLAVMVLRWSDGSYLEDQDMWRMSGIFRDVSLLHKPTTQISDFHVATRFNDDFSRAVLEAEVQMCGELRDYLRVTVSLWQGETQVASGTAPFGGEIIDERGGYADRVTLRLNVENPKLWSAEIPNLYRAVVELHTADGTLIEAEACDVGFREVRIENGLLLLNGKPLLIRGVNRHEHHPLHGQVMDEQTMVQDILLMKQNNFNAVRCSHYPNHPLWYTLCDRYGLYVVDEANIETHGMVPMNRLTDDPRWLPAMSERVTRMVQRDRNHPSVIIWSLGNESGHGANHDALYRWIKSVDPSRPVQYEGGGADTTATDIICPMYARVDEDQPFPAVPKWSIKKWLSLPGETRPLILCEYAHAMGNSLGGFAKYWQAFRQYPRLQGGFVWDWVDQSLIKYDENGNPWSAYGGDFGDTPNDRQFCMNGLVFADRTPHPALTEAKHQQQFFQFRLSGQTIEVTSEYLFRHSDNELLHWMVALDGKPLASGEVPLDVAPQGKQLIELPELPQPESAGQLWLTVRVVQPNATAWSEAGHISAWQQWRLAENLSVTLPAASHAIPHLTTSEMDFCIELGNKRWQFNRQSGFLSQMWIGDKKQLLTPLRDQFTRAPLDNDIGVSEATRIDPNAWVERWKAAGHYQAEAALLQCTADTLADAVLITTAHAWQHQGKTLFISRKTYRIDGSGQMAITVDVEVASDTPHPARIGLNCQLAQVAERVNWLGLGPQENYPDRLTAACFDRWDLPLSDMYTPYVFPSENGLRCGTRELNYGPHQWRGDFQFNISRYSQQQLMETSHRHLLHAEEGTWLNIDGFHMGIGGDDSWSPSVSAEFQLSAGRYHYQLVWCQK
T10 sequence (P34972 whole entry): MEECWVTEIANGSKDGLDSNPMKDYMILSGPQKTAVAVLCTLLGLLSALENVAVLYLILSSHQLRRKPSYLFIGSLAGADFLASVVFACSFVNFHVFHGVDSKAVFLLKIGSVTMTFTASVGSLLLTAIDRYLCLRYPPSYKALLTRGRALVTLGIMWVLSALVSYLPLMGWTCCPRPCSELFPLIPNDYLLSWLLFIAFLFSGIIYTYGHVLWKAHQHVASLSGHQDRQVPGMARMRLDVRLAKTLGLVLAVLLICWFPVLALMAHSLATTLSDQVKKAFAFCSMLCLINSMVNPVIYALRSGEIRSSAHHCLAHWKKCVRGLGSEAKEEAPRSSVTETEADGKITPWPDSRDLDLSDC
T9 sequence (Q9HC97 whole entry): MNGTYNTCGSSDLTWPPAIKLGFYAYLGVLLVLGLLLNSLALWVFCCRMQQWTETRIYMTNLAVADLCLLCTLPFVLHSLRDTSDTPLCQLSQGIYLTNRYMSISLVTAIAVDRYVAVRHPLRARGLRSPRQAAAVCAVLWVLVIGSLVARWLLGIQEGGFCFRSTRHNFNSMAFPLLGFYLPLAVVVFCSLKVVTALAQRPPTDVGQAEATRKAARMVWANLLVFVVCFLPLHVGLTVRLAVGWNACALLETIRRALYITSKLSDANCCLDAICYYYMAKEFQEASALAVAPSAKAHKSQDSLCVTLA
T1 sequence (P41143 whole entry): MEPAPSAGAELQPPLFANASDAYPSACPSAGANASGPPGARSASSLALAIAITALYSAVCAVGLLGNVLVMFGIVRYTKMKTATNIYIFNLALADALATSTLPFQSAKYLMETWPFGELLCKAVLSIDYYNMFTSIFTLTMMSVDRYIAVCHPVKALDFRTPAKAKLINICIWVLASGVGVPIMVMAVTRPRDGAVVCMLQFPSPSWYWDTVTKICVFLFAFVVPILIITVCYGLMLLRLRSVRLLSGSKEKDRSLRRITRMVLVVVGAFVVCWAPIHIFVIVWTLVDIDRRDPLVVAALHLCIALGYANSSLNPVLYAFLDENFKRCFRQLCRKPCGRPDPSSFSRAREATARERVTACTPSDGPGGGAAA
T4 sequence (P41145 whole entry): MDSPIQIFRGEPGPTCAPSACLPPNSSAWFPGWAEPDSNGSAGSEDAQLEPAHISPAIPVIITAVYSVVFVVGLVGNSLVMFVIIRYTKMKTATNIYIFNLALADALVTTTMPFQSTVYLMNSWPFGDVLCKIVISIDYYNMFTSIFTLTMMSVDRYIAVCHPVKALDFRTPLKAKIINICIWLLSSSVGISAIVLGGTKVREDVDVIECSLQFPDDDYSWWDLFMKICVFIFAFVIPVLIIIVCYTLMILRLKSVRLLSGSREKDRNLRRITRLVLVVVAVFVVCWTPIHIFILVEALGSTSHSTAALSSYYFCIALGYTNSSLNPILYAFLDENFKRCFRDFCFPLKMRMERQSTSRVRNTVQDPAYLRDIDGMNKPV
T7 sequence (Q9Y2T6 whole entry): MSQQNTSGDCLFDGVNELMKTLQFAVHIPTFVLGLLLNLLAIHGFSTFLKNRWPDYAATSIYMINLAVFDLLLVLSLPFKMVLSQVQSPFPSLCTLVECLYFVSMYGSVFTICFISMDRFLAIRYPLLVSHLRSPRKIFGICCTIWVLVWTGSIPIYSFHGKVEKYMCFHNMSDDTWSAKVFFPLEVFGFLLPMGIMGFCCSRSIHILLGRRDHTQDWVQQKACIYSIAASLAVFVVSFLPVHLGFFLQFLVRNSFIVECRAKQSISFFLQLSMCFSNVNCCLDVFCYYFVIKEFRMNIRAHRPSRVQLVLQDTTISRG
Sequence of E3 ubiquitin-protein ligase Mdm2 (Q00987 whole entry): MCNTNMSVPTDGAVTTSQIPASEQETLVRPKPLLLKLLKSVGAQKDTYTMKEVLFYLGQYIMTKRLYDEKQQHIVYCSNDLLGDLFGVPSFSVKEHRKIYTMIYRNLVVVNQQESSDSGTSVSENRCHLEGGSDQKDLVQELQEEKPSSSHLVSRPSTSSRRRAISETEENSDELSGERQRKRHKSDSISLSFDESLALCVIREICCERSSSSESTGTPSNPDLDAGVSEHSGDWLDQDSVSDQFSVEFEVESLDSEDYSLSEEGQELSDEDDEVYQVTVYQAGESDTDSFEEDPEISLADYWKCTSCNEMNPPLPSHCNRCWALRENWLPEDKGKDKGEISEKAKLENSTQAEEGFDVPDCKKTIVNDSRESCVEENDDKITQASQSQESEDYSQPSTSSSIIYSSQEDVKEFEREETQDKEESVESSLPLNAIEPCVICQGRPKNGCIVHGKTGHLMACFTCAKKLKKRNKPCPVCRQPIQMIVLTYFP
Sequence of Nonstructural protein 1 (Q194T2 whole entry): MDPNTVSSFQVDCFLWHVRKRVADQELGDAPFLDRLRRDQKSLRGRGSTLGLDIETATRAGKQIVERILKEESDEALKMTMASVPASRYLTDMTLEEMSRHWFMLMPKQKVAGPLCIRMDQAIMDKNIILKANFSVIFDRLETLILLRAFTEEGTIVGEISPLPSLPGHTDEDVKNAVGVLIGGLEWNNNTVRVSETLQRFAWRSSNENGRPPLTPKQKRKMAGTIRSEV
Sequence of Mu-type opioid receptor (P35372 whole entry): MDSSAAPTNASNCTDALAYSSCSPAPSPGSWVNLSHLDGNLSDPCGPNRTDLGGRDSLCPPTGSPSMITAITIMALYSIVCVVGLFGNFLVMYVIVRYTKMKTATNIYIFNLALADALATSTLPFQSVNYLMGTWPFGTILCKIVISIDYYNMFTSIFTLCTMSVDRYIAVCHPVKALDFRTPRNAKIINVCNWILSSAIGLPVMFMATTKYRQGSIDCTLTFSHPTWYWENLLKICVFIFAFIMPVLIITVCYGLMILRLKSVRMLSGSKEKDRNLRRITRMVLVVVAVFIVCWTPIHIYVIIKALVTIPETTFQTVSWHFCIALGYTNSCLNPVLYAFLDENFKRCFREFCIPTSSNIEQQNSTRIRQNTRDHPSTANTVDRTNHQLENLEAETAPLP

As to `COCc1cc(O)nc(Nc2nc3ccc(C)cc3o2)n1`, the IC50 (in general, the point on the concentration scale where inhibition reaches its midpoint) was > 32 µM (inactive) in assay [1]; 6.83 µM (active) in [8]; 7.12 µM (active) in assay [9]; greater than 32 µM in [12]; > 20 µM (inactive) in assay [14]; 16.1 µM (active) in assay [15]. Besides, the EC50 – broadly, the concentration at which the effect is half-maximal – was > 32 µM (inactive) in [2]; 0.56 µM (active) in assay [3]; 2.11 µM (active) in [4]; > 32 µM (inactive) in assay [5]; > 40 µM (inactive) in assay [6]; 1.87 µM (active) in [7]. Moreover, the EC50 in [10] is 4.89 µM (active); in [11], > 31.5 µM (inactive); in assay [13] it was 7.89 µM (active); in [16] it was 11.1 µM (active). Besides, the AC50 (commonly the midpoint of the concentration-response curve, whichever way the signal moves) in [17] is 103 µM (active).
Turning to `O=C(N1CCC(n2nc(-c3ccccc3)oc2=O)CC1)C1(c2ccc(Cl)cc2)CC1`, the IC50 in assay [18] was 0.68 µM (active); in [19], 9.6 µM (active); in [21], > 32 µM (inactive); in [23], > 32 µM (inactive); in [24], 0.76 µM (active). In addition, the EC50 in assay [20], in assay [22] and in assay [25] was > 32 µM (inactive) each time.
